According to patent US20120029187A1, “HALOALKYLSULFONANILIDE DERIVATIVE” (Nissan Chemical Industries, Ltd., priority 2009, published 2012):

Tests used:
Assay type in all cases: in vivo
Italian ryegrass [1] = test: Test Example 4: herbicidal effect in foliage treatment; conditions: dose 6.3 g/a, three weeks after application
Procedure, shortened: (§1)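 Visual herbicidal scores on a graded scale were recorded three weeks after foliar application. Compounds went on as diluted emulsifiable concentrates at predetermined g/a to plants grown 14 days in a 25 to 30° C greenhouse.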

common ragweed [2] = test: as above; conditions: dose 6.3 g/a, three weeks after application
Procedure, shortened: as §1

large crabgrass [3] = test: as above; conditions: dose 6.3 g/a, three weeks after application
Procedure, shortened: as §1

barnyardgrass [4] = test: as above; conditions: dose 6.3 g/a, three weeks after application
Procedure, shortened: as §1

common lambsquater [5] = test: as above; conditions: dose 6.3 g/a, three weeks after application
Procedure, shortened: as §1

water foxtail [6] = test: as above; conditions: dose 6.3 g/a, three weeks after application
Procedure, shortened: as §1

giant foxtail [7] = test: as above; conditions: dose 6.3 g/a, three weeks after application
Procedure, shortened: as §1

wild oat [8] = test: as above; conditions: dose 6.3 g/a, three weeks after application
Procedure, shortened: as §1

redroot pigweed [9] = test: as above; conditions: dose 6.3 g/a, three weeks after application
Procedure, shortened: as §1

common chickweed [10] = test: as above; conditions: dose 6.3 g/a, three weeks after application
Procedure, shortened: as §1

beadstraw = test: as above; conditions: dose 6.3 g/a, three weeks after application
Procedure, shortened: as §1

barnyardgrass [11] = test: Test Example 1: herbicidal effects in preemergence treatment under submerged conditions; conditions: dose 2.52 g/a
Procedure, shortened: (§2)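 Alluvial soil was flooded to 4 cm, sown with barnyardgrass, bulrush and ducksalad, and planted with 2.5-leaf rice seedlings. On the seeding day, water-diluted emulsifiable concentrates were applied to the water surface at set doses (g/a). After three weeks in a 25 to 30° C. greenhouse, mortality was scored 0–5.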

bulrush [12] = test: as above; conditions: dose 2.52 g/a
Procedure, shortened: as §2

ducksalad [13] = test: as above; conditions: dose 2.52 g/a
Procedure, shortened: as §2

barnyardgrass [14] = test: Test Example 2: herbicidal effects during the vegetation period under submerged conditions; conditions: treatment during the vegetation period under submerged conditions; dose 2.52 g/a
Procedure, shortened: (§3)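 Barnyardgrass, bulrush and ducksalad were co-sown in alluvial soil flooded to 4 cm and grown in a greenhouse at 25 to 30° C. At the 1- or 2-leaf stage, water-diluted emulsifiable concentrates went onto the water surface at set doses (g/a). Herbicidal effect was scored three weeks later on a graded scale.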

bulrush [15] = test: as above; conditions: treatment during the vegetation period under submerged conditions; dose 2.52 g/a
Procedure, shortened: as §3

ducksalad [16] = test: as above; conditions: treatment during the vegetation period under submerged conditions; dose 2.52 g/a
Procedure, shortened: as §3

Italian ryegrass [17] = test: Test Example 3: herbicidal effects in soil treatment; conditions: dose 6.3 g/a
Procedure, shortened: (§4)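 Seeds were sown in sterilized diluvial soil and covered with about 1.5 cm of soil. Compounds, formulated as emulsifiable concentrates and diluted with water, were sprayed evenly over the soil surface at set doses in g/a. Herbicidal effect was scored on a rating scale three weeks later.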

common ragweed [18] = test: as above; conditions: dose 6.3 g/a
Procedure, shortened: as §4

large crabgrass [19] = test: as above; conditions: dose 6.3 g/a
Procedure, shortened: as §4

barnyardgrass [20] = test: as above; conditions: dose 6.3 g/a
Procedure, shortened: as §4

common lambsquater [21] = test: as above; conditions: dose 6.3 g/a
Procedure, shortened: as §4

water foxtail [22] = test: as above; conditions: dose 6.3 g/a
Procedure, shortened: as §4

giant foxtail [23] = test: as above; conditions: dose 6.3 g/a
Procedure, shortened: as §4

wild oat [24] = test: as above; conditions: dose 6.3 g/a
Procedure, shortened: as §4

redroot pigweed [25] = test: as above; conditions: dose 6.3 g/a
Procedure, shortened: as §4

common chickweed [26] = test: as above; conditions: dose 6.3 g/a
Procedure, shortened: as §4

transplanted rice = test: Test Example 1: preemergence treatment under submerged conditions, effect on crop; conditions: dose 2.52 g/a
Procedure, shortened: as §2

CC1CC(=O)N(Cc2ccccc2NS(=O)(=O)C(F)(F)F)CO1 (stereo not shown) [II-4]
H: Italian ryegrass, herbicidal effect (Italian ryegrass [1]): 3 (mortality of at least 40% and less than 70%)
J: common ragweed, herbicidal effect (common ragweed [2]): 5 (mortality of 90% or above (nearly complete death))
D: large crabgrass, herbicidal effect (large crabgrass [3]): 5 (mortality of 90% or above (nearly complete death))
A: barnyardgrass, herbicidal effect (barnyardgrass [4]): 5 (mortality of 90% or above (nearly complete death))
L: common lambsquater, herbicidal effect (common lambsquater [5]): 3 (mortality of at least 40% and less than 70%)
G: water foxtail, herbicidal effect (water foxtail [6]): 5 (mortality of 90% or above (nearly complete death))
E: giant foxtail, herbicidal effect (giant foxtail [7]): 5 (mortality of 90% or above (nearly complete death))
F: wild oat, herbicidal effect (wild oat [8]): 0 (mortality of less than 5% (almost ineffective))
K: redroot pigweed, herbicidal effect (redroot pigweed [9]): 0 (mortality of less than 5% (almost ineffective))
N: common chickweed, herbicidal effect (common chickweed [10]): 3 (mortality of at least 40% and less than 70%)
O: beadstraw, herbicidal effect (beadstraw): 4 (mortality of at least 70% and less than 90%)
A: barnyardgrass, herbicidal effect (evaluation scale 0-5) (barnyardgrass [11]): 5 (mortality of 90% or above (nearly complete death))
B: bulrush, herbicidal effect (evaluation scale 0-5) (bulrush [12]): 5 (mortality of 90% or above (nearly complete death))
C: ducksalad, herbicidal effect (evaluation scale 0-5) (ducksalad [13]): 5 (mortality of 90% or above (nearly complete death))
A: barnyardgrass, herbicidal effect (evaluation scale 0-5) (barnyardgrass [14]): 5 (mortality of 90% or above (nearly complete death))
B: bulrush, herbicidal effect (evaluation scale 0-5) (bulrush [15]): 5 (mortality of 90% or above (nearly complete death))
C: ducksalad, herbicidal effect (evaluation scale 0-5) (ducksalad [16]): 5 (mortality of 90% or above (nearly complete death))
H: Italian ryegrass, herbicidal effect (evaluation scale 0-5) (Italian ryegrass [17]): 3 (mortality of at least 40% and less than 70%)
J: common ragweed, herbicidal effect (evaluation scale 0-5) (common ragweed [18]): 4 (mortality of at least 70% and less than 90%)
D: large crabgrass, herbicidal effect (evaluation scale 0-5) (large crabgrass [19]): 5 (mortality of 90% or above (nearly complete death))
A: barnyardgrass, herbicidal effect (evaluation scale 0-5) (barnyardgrass [20]): 5 (mortality of 90% or above (nearly complete death))
L: common lambsquater, herbicidal effect (evaluation scale 0-5) (common lambsquater [21]): 4 (mortality of at least 70% and less than 90%)
G: water foxtail, herbicidal effect (evaluation scale 0-5) (water foxtail [22]): 5 (mortality of 90% or above (nearly complete death))
E: giant foxtail, herbicidal effect (evaluation scale 0-5) (giant foxtail [23]): 5 (mortality of 90% or above (nearly complete death))
F: wild oat, herbicidal effect (evaluation scale 0-5) (wild oat [24]): 0 (mortality of less than 5% (almost ineffective))
K: redroot pigweed, herbicidal effect (evaluation scale 0-5) (redroot pigweed [25]): 0 (mortality of less than 5% (almost ineffective))
N: common chickweed, herbicidal effect (evaluation scale 0-5) (common chickweed [26]): 5 (mortality of 90% or above (nearly complete death))
a: transplanted rice, effect on crop (evaluation scale 0-5) (transplanted rice): 0 (mortality of less than 5% (almost ineffective))
